Measurements as given in PubChem BioAssay AID1963839 (Molecular Pharmacology Branch, DTP, NCI, 2024).

Tested on: 817829-284-R-J1-PDC complex spheroid viability
Assay: Anticancer human tumor 817829-284-R-J1-PDC patient-derived colon adenocarcinoma cell line growth inhibition [POLQ]
Conditions: for IC50: curve of first compound; for viability, T/C: stronger effect = lower value
Summary of the method: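 Three-cell-type spheroids modelling solid tumor plus stroma served as the readout system; POL inhibitors were tested individually and in combination, concentration ranges set by clinical Cmax where known.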
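Further: spheroids exposed to compounds for 7 days.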
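Wherever viability, T/C is given: 100% = DMSO vehicle-treated spheroids.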

CC(=O)O[C@H]1C(=O)[C@@]2(C)[C@H]([C@H](OC(=O)c3ccccc3)[C@]3(O)C[C@H](OC(=O)[C@H](O)[C@@H](NC(=O)c4ccccc4)c4ccccc4)C(C)=C1C3(C)C)[C@]1(OC(C)=O)CO[C@@H]1C[C@@H]2O + COC1C(OC(N)=O)C(O)C(Oc2ccc3c(O)c(NC(=O)c4ccc(O)c(CC=C(C)C)c4)c(=O)oc3c2C)OC1(C)C
IC50 (second compound 0.0316 µM): < 0.00949 µM | IC50 (second compound 0.1 µM): < 0.00949 µM | IC50 (second compound 0.316 µM): < 0.00949 µM | IC50 (second compound 1 µM): < 0.00949 µM | IC50 (second compound 3.16 µM): < 0.00949 µM | IC50 (second compound 10 µM): < 0.00949 µM | viability, T/C (second compound 0.0316 µM, first compound 0.00949 µM): 6.3% | viability, T/C (second compound 0.0316 µM, first compound 0.03 µM): 5.64% | viability, T/C (second compound 0.0316 µM, first compound 0.0949 µM): 4.85% | viability, T/C (second compound 0.0316 µM, first compound 0.3 µM): 4.95% | viability, T/C (second compound 0.0316 µM, first compound 0.949 µM): 4.91% | viability, T/C (second compound 0.0316 µM, first compound 3 µM): 5.21% | viability, T/C (second compound 0.1 µM, first compound 0.00949 µM): 5.46% | viability, T/C (second compound 0.1 µM, first compound 0.03 µM): 4.45% | viability, T/C (second compound 0.1 µM, first compound 0.0949 µM): 4.97% | viability, T/C (second compound 0.1 µM, first compound 0.3 µM): 5.08% | viability, T/C (second compound 0.1 µM, first compound 0.949 µM): 4.85% | viability, T/C (second compound 0.1 µM, first compound 3 µM): 5.2% | viability, T/C (second compound 0.316 µM, first compound 0.00949 µM): 5.79% | viability, T/C (second compound 0.316 µM, first compound 0.03 µM): 5.7% | viability, T/C (second compound 0.316 µM, first compound 0.0949 µM): 5.32% | viability, T/C (second compound 0.316 µM, first compound 0.3 µM): 4.7% | viability, T/C (second compound 0.316 µM, first compound 0.949 µM): 4.56% | viability, T/C (second compound 0.316 µM, first compound 3 µM): 4.8% | viability, T/C (second compound 1 µM, first compound 0.00949 µM): 5.74% | viability, T/C (second compound 1 µM, first compound 0.03 µM): 5.47% | viability, T/C (second compound 1 µM, first compound 0.0949 µM): 5.82% | viability, T/C (second compound 1 µM, first compound 0.3 µM): 4.18% | viability, T/C (second compound 1 µM, first compound 0.949 µM): 4.64% | viability, T/C (second compound 1 µM, first compound 3 µM): 5.33% | viability, T/C (second compound 3.16 µM, first compound 0.00949 µM): 5.62% | viability, T/C (second compound 3.16 µM, first compound 0.03 µM): 5.09% | viability, T/C (second compound 3.16 µM, first compound 0.0949 µM): 4.79% | viability, T/C (second compound 3.16 µM, first compound 0.3 µM): 4.48% | viability, T/C (second compound 3.16 µM, first compound 0.949 µM): 4.83% | viability, T/C (second compound 3.16 µM, first compound 3 µM): 4.67% | viability, T/C (second compound 10 µM, first compound 0.00949 µM): 5.28% | viability, T/C (second compound 10 µM, first compound 0.03 µM): 5.23% | viability, T/C (second compound 10 µM, first compound 0.0949 µM): 5.99% | viability, T/C (second compound 10 µM, first compound 0.3 µM): 5.05% | viability, T/C (second compound 10 µM, first compound 0.949 µM): 4.95% | viability, T/C (second compound 10 µM, first compound 3 µM): 5.41%

C=CC(=O)N1CCN(c2nc(=O)n(-c3c(C)ccnc3C(C)C)c3nc(-c4c(O)cccc4F)c(F)cc23)C(C)C1 (centres undefined) + COC1C(OC(N)=O)C(O)C(Oc2ccc3c(O)c(NC(=O)c4ccc(O)c(CC=C(C)C)c4)c(=O)oc3c2C)OC1(C)C
IC50 (second compound 0.0316 µM): > 10 µM | IC50 (second compound 0.1 µM): > 10 µM | IC50 (second compound 0.316 µM): > 10 µM | IC50 (second compound 1 µM): > 10 µM | IC50 (second compound 3.16 µM): > 10 µM | IC50 (second compound 10 µM): > 10 µM | viability, T/C (second compound 0.0316 µM, first compound 0.0316 µM): 87.6% | viability, T/C (second compound 0.0316 µM, first compound 0.1 µM): 125% | viability, T/C (second compound 0.0316 µM, first compound 0.316 µM): 89.3% | viability, T/C (second compound 0.0316 µM, first compound 1 µM): 99.9% | viability, T/C (second compound 0.0316 µM, first compound 3.16 µM): 121% | viability, T/C (second compound 0.0316 µM, first compound 10 µM): 67.3% | viability, T/C (second compound 0.1 µM, first compound 0.0316 µM): 124% | viability, T/C (second compound 0.1 µM, first compound 0.1 µM): 100% | viability, T/C (second compound 0.1 µM, first compound 0.316 µM): 133% | viability, T/C (second compound 0.1 µM, first compound 1 µM): 83.3% | viability, T/C (second compound 0.1 µM, first compound 3.16 µM): 118% | viability, T/C (second compound 0.1 µM, first compound 10 µM): 76.2% | viability, T/C (second compound 0.316 µM, first compound 0.0316 µM): 115% | viability, T/C (second compound 0.316 µM, first compound 0.1 µM): 127% | viability, T/C (second compound 0.316 µM, first compound 0.316 µM): 104% | viability, T/C (second compound 0.316 µM, first compound 1 µM): 97.4% | viability, T/C (second compound 0.316 µM, first compound 3.16 µM): 95.7% | viability, T/C (second compound 0.316 µM, first compound 10 µM): 59.6% | viability, T/C (second compound 1 µM, first compound 0.0316 µM): 132% | viability, T/C (second compound 1 µM, first compound 0.1 µM): 104% | viability, T/C (second compound 1 µM, first compound 0.316 µM): 77.8% | viability, T/C (second compound 1 µM, first compound 1 µM): 140% | viability, T/C (second compound 1 µM, first compound 3.16 µM): 89.3% | viability, T/C (second compound 1 µM, first compound 10 µM): 51.2% | viability, T/C (second compound 3.16 µM, first compound 0.0316 µM): 102% | viability, T/C (second compound 3.16 µM, first compound 0.1 µM): 108% | viability, T/C (second compound 3.16 µM, first compound 0.316 µM): 123% | viability, T/C (second compound 3.16 µM, first compound 1 µM): 97% | viability, T/C (second compound 3.16 µM, first compound 3.16 µM): 80.4% | viability, T/C (second compound 3.16 µM, first compound 10 µM): 72.2% | viability, T/C (second compound 10 µM, first compound 0.0316 µM): 78.8% | viability, T/C (second compound 10 µM, first compound 0.1 µM): 96.8% | viability, T/C (second compound 10 µM, first compound 0.316 µM): 80.7% | viability, T/C (second compound 10 µM, first compound 1 µM): 98.2% | viability, T/C (second compound 10 µM, first compound 3.16 µM): 107% | viability, T/C (second compound 10 µM, first compound 10 µM): 57.3%
